From ChEMBL document CHEMBL3879911, “Heteroaryl compounds useful as inhibitors of E1 activating enzymes” (2008) come the findings set out here.

For orientation: IC50 means the point on the concentration scale where inhibition reaches its midpoint.

The structures appear in SMILES notation.

The assay deals with T1, NEDD8 activating enzyme (Homo sapiens, UniProt Q8TBC4).
T1 sequence (Q8TBC4 whole entry): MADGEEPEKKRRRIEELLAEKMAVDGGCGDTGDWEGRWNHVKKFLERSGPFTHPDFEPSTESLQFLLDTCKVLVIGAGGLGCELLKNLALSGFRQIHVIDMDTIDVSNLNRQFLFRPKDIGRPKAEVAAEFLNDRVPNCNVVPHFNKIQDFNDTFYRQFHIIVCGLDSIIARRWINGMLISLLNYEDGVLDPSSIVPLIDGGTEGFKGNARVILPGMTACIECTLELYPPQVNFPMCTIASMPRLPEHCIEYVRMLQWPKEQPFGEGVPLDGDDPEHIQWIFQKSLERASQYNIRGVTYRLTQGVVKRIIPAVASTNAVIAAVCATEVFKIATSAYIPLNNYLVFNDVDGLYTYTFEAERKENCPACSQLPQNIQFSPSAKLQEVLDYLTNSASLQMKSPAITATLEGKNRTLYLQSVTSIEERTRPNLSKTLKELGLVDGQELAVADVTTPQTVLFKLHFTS
T1 sequence (Q13564 whole entry): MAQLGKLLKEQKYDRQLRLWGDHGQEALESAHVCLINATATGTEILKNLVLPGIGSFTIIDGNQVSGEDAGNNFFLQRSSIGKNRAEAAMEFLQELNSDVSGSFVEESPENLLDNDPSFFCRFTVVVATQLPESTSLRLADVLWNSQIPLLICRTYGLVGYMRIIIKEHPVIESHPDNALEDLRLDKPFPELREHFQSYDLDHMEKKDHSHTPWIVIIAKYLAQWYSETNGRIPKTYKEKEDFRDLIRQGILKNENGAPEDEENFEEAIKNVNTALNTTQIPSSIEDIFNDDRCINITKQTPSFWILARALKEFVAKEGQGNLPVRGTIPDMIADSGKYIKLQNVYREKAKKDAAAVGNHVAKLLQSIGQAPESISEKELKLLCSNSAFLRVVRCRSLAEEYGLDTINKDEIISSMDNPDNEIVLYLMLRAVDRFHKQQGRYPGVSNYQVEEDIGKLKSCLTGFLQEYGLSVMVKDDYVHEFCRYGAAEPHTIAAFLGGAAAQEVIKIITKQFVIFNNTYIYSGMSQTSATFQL
Description: Inhibition of recombinant human NAEalpha/N-terminal His-tagged NAEbeta expressed in baculovirus infected insect Sf9 cells using N-terminal FLAG tagged Nedd8 as substrate incubated for 105 mins in presence of N-terminal GST-tagged Ubc12 by FRET assay.
Take `CN(C)c1ccc(-c2nc3ncnc(O[C@@H]4C[C@@H](COS(N)(=O)=O)[C@@H](O)C4)c3[nH]2)c2ccccc12`: the IC50 is ≤ 0.5 µM.

In the case of `NS(=O)(=O)OC[C@@H]1C[C@@H](Oc2cc(NCc3cccc4ccccc34)ncn2)C[C@@H]1O`, the 50% inhibitory concentration (IC50) is ≤ 0.5 µM. Under `COc1ccc2c(c1)[C@@H](Nc1cc(O[C@@H]3C[C@@H](COS(N)(=O)=O)[C@@H](O)C3)ncn1)[C@@H](OC)CC2` stands 0.5 to 10 µM; under `NS(=O)(=O)OC[C@@H]1C[C@@H](Nc2ncnc3[nH]c(-c4ccccc4Oc4ccccc4)nc23)C[C@@H]1O`, ≤ 0.5 µM; under `CC1CC(Nc2nccc(N[C@@H]3C[C@H](COS(N)(=O)=O)[C@@H](O)[C@H]3O)n2)c2ccccc21` (stereo not given in full), ≤ 0.5 µM. The figure for `Cn1c(-c2ccccc2)nc2ncnc(N[C@@H]3C[C@@H](COS(N)(=O)=O)[C@@H](O)C3)c21` is 0.5 to 10 µM. For the compound `CC1(C)C[C@H](Nc2nccc(N[C@@H]3C[C@H](COS(N)(=O)=O)[C@@H](O)[C@H]3O)n2)c2ccccc21`, the IC50 was ≤ 0.5 µM. As for `NS(=O)(=O)OC[C@H]1C[C@@H](Nc2ncnc3[nH]cnc23)[C@H](O)[C@@H]1O`, the IC50 was ≤ 0.5 µM. As to `NS(=O)(=O)OC[C@H]1C[C@@H](Nc2cc(C#Cc3ccccc3)ncn2)[C@H](O)[C@@H]1O`, the IC50 was ≤ 0.5 µM. `NS(=O)(=O)OC[C@@H]1C[C@@H](Nc2cc(N[C@H]3CCc4ccccc43)nc(=O)[nH]2)C[C@@H]1O`: the IC50 is 0.5 to 10 µM. Under `CN(Cc1ccccc1)c1nccc(N[C@@H]2C[C@H](COS(N)(=O)=O)[C@@H](O)[C@H]2O)n1` stands > 10 µM; under `NS(=O)(=O)OC[C@H]1C[C@@H](O)[C@H](Nc2cc(N[C@H]3CCc4ccccc43)ncn2)C1`, > 10 µM; under `NS(=O)(=O)OC[C@H]1C[C@@H](Nc2ncnc3[nH]c(-c4ccccc4)nc23)[C@H](O)[C@@H]1O`, ≤ 0.5 µM. For the compound `OC[C@@H]1C[C@@H](Nc2ncnc3[nH]c(-c4cccc5c4CCCC5)nc23)C[C@@H]1O`, the IC50 lay within 0.5 to 10 µM. As for `CN(c1ncnc2[nH]c(-c3cccc4ccccc34)nc12)[C@@H]1C[C@@H](COS(N)(=O)=O)[C@@H](O)C1`, the IC50 was ≤ 0.5 µM.

As to `CN(C)C(=O)[C@H]1Cc2ccccc2[C@H]1Nc1cc(O[C@@H]2C[C@@H](COS(N)(=O)=O)[C@@H](O)C2)ncn1`, the IC50 lay within 0.5 to 10 µM. Under `NS(=O)(=O)OC[C@H]1C[C@@H](Nc2cc(N[C@H]3CCc4c(Cl)cccc43)ncn2)[C@H](O)[C@@H]1O` stands ≤ 0.5 µM; under `NS(=O)(=O)OC[C@@H]1C[C@@H](Nc2cc(N[C@H]3CCc4ccccc43)ncn2)[C@H](O)[C@@H]1O`, ≤ 0.5 µM; under `NS(=O)(=O)OC[C@H]1C[C@@H](Nc2cc(N[C@H]3CCc4ccccc43)ncn2)C[C@@H]1O`, ≤ 0.5 µM. Under `CO[C@H]1Cc2ccccc2[C@H]1Nc1ncnc(O[C@@H]2C[C@@H](COS(N)(=O)=O)[C@@H](O)C2)c1F` stands ≤ 0.5 µM; under `CO[C@@H]1CC(C)(C)c2ccccc2[C@@H]1Nc1cc(O[C@@H]2C[C@@H](COS(N)(=O)=O)[C@@H](O)C2)ncn1`, ≤ 0.5 µM; under `NS(=O)(=O)OC[C@H]1C[C@@H](Nc2cc(CCc3ccccc3)ncn2)[C@H](O)[C@@H]1O`, 0.5 to 10 µM. The figure for `OC[C@@H]1C[C@@H](Nc2ncnc3[nH]c(-c4cccc5c4OCCO5)nc23)C[C@@H]1O` is 0.5 to 10 µM; for `Cc1ccccc1-c1nc2c(N[C@@H]3C[C@@H](COS(N)(=O)=O)[C@@H](O)C3)ncnc2[nH]1` it is ≤ 0.5 µM. Turning to `NS(=O)(=O)OC[C@@H]1C[C@@H](Oc2ncnc3nc(-c4cnn(Cc5ccccc5)c4)[nH]c23)C[C@@H]1O`, the IC50 is ≤ 0.5 µM.

Turning to `NS(=O)(=O)OC[C@@H]1C[C@@H](Oc2ncnc3nc(-c4c[nH]c5ccccc45)[nH]c23)C[C@@H]1O`, the IC50 is ≤ 0.5 µM. On to `NS(=O)(=O)OC[C@@H]1C[C@@H](Oc2cc(OCc3cccc4ccccc34)ncn2)C[C@@H]1O`, for which the IC50 fell in the range of 0.5 to 10 µM. On to `NS(=O)(=O)OC[C@H]1C[C@@H](Nc2ncnc(N[C@@H]3CCc4ccccc43)n2)[C@H](O)[C@@H]1O`, for which the IC50 is ≤ 0.5 µM. Under `CC1(C)C[C@H](Nc2cc(O[C@@H]3C[C@@H](COS(N)(=O)=O)[C@@H](O)C3)ncn2)c2ccccc21` stands ≤ 0.5 µM; under `CO[C@H]1Cc2ccccc2[C@H]1Oc1cc(O[C@@H]2C[C@@H](COS(N)(=O)=O)[C@@H](O)C2)ncn1`, 0.5 to 10 µM; under `NS(=O)(=O)OC[C@@H]1C[C@@H](Nc2ncnc3oc(-c4ccccc4)nc23)C[C@@H]1O`, ≤ 0.5 µM.

With `NS(=O)(=O)OC[C@@H]1C[C@@H](Oc2cc(OCc3ccc(Cl)cc3)ncn2)C[C@@H]1O`, the IC50 is > 10 µM.

Take `NS(=O)(=O)OC[C@@H]1C[C@@H](Nc2ncnc3[nH]c(-c4ccc(Cl)cc4)nc23)C[C@@H]1O`: the IC50 was ≤ 0.5 µM. The figure for `NS(=O)(=O)OC[C@@H]1C[C@@H](Nc2ncnc3[nH]c(-c4cccc5c4OCCO5)nc23)C[C@@H]1O` is ≤ 0.5 µM; for `CC1(C)C[C@H](Nc2ncnc(N[C@@H]3C[C@@H](COS(N)(=O)=O)[C@@H](O)C3)c2F)c2ccccc21` it is ≤ 0.5 µM; for `NS(=O)(=O)OC[C@@H]1C[C@@H](Nc2ncnc3[nH]c(-c4cccc5ccccc45)cc23)C[C@@H]1O` it is ≤ 0.5 µM.

Regarding `NS(=O)(=O)OC[C@@H]1C[C@@H](Oc2cc(N3Cc4ccccc4C3)ncn2)C[C@@H]1O`, the IC50 fell in the range of 0.5 to 10 µM. Under `NS(=O)(=O)OC[C@@H]1C[C@@H](Nc2ncnc3[nH]c(-c4cccc5c4oc4ccccc45)nc23)C[C@@H]1O` stands ≤ 0.5 µM. Regarding `NS(=O)(=O)OC[C@@H]1C[C@@H](N2CCc3c(N[C@H]4CCc5ccccc54)ncnc32)C[C@@H]1O`, the IC50 was ≤ 0.5 µM. Take `Cc1cccc(Sc2nc3ncnc(O[C@@H]4C[C@@H](COS(N)(=O)=O)[C@@H](O)C4)c3[nH]2)c1`: the IC50 was ≤ 0.5 µM. Under `CC1(C)C[C@H](Nc2cc(N[C@@H]3C[C@H](COS(N)(=O)=O)[C@@H](O)[C@H]3O)ncn2)c2ccccc21` stands ≤ 0.5 µM; under `NS(=O)(=O)OC[C@@H]1C[C@@H](Nc2ncnc3[nH]c(-c4cccc5ccccc45)nc23)C[C@@H]1O`, ≤ 0.5 µM. `NS(=O)(=O)OC[C@H]1C[C@@H](Nc2ccnc(NCc3ccccc3)n2)[C@H](O)[C@@H]1O`: the 50% inhibitory concentration (IC50) was 0.5 to 10 µM. Turning to `NS(=O)(=O)OC[C@@H]1C[C@@H](Nc2ncnc3[nH]c(-c4ccccc4OCc4ccccc4)nc23)C[C@@H]1O`, the IC50 is ≤ 0.5 µM. `NS(=O)(=O)OC[C@@H]1C[C@@H](Nc2ncnc3[nH]c(-c4ccccc4)nc23)C[C@@H]1O`: the IC50 was ≤ 0.5 µM.

On to `CO[C@@H]1c2ccccc2C[C@@H]1Oc1cc(O[C@@H]2C[C@@H](COS(N)(=O)=O)[C@@H](O)C2)ncn1`, for which the IC50 fell in the range of 0.5 to 10 µM. With `NS(=O)(=O)OC[C@@H]1C[C@@H](Oc2cc(NC3CCCC3)ncn2)C[C@@H]1O`, the half-inhibitory concentration (IC50) was in the range of 0.5 to 10 µM. Turning to `NS(=O)(=O)OC[C@@H]1C[C@@H](Oc2ncnc3nc(-c4ccnc5cc(Cl)ccc45)[nH]c23)C[C@@H]1O`, the IC50 is ≤ 0.5 µM. Consider `CO[C@H]1Cc2ccccc2[C@H]1Nc1cc(O[C@@H]2C[C@@H](COS(N)(=O)=O)[C@@H](O)C2)ncn1`, for which the IC50 was ≤ 0.5 µM.

With `CN(C)C[C@H]1Cc2ccccc2[C@H]1Nc1cc(O[C@@H]2C[C@@H](COS(N)(=O)=O)[C@@H](O)C2)ncn1`, the IC50 lay in the range of 0.5 to 10 µM.

Consider `Cc1nc(N[C@H]2CCc3ccccc32)nc(N[C@@H]2C[C@H](COS(N)(=O)=O)[C@@H](O)[C@H]2O)n1`, for which the IC50 is ≤ 0.5 µM.

With `NS(=O)(=O)OC[C@H]1C[C@@H](NC(=O)c2cccnc2)[C@H](O)[C@@H]1O`, the IC50 lay within 0.5 to 10 µM.

Take `C[C@H]1Cc2ccccc2[C@H]1Nc1cc(O[C@@H]2C[C@@H](COS(N)(=O)=O)[C@@H](O)C2)ncn1`: the IC50 is ≤ 0.5 µM. Regarding `NS(=O)(=O)OC[C@H]1C[C@@H](Nc2cc(N[C@@H]3CCC[C@H]3OCc3ccccc3)ncn2)[C@H](O)[C@@H]1O`, the IC50 is > 10 µM. For the compound `NS(=O)(=O)OC[C@@H]1C[C@@H](Oc2ncnc3nc(-c4cncc5ccccc45)[nH]c23)C[C@@H]1O`, the IC50 was ≤ 0.5 µM. For the compound `CO[C@@H]1Cc2ccccc2[C@@H]1Oc1cc(O[C@@H]2C[C@@H](COS(N)(=O)=O)[C@@H](O)C2)ncn1`, the IC50 lay within 0.5 to 10 µM.

On to `CC1(C)Cc2cccc(-c3nc4c(N[C@@H]5C[C@@H](COS(N)(=O)=O)[C@@H](O)C5)ncnc4[nH]3)c2O1`, for which the IC50 is ≤ 0.5 µM. In the case of `NS(=O)(=O)OC[C@@H]1C[C@@H](Nc2ncnc3[nH]c(-c4cccc5c4CCCC5)nc23)C[C@@H]1O`, the IC50 is ≤ 0.5 µM. In the case of `CO[C@H]1CCc2ccccc2[C@H]1Nc1cc(O[C@@H]2C[C@@H](COS(N)(=O)=O)[C@@H](O)C2)ncn1`, the IC50 is ≤ 0.5 µM. With `CN(c1ncnc2c1nc(-c1ccccc1)n2C)[C@@H]1C[C@@H](COS(N)(=O)=O)[C@@H](O)C1`, the IC50 was in the range of 0.5 to 10 µM.
